Patent US12390472B2 (SUZHOU SINOVENT PHARMACEUTICALS CO., LTD., priority 2018, dated 2025)

Legend:
[1] = system: subcutaneous xenograft tumor model of human B lymphocyte Pfeiffer; test: In vivo efficacy in subcutaneous xenograft tumor model of human B lymphocyte Pfeiffer; design: species or system mouse; conditions: SCID Beige mice, 100 mg/kg p.o. QD 21 days, tumor volume 21 days after administration
Protocol: Human B lymphocyte strain Pfeiffer was cultured in vitro, in a monolayer way, in a RPMI-1640 medium containing 10% fetal bovine serum, 100 U/mL penicillin and 100 μg/mL streptomycin in an incubator at 37° C./5% CO2. Conventional medium refreshment and subculturing were carried out twice a week, and cells in logarithmic growth phase were collected and used for tumor inoculation after being counted.
Female SCID Beige mice, aged 6-8 weeks and weighed 18-22 g were used in the experiment. The experiment started after 7-day adaptive feed.
Each mouse was inoculated subcutaneously with 10×10^6 Pfeiffer cells in a volume of 0.2 mL in the right side of the neck. The cells were suspended with PBS and matrigel (volume ratio 1:1). After the average tumor volume reached 130 mm^3, the mice were divided into groups with 8 mice per group for administration. The administration volume was 10 uL/g and the dose was 100 mg/kg if there's no special labeling ((p.o. administration, QD, continuous administration for 21 days).
Animal body weights were measured twice weekly and animal mortality and side effects within each group were recorded based on the number of animals in the group.
The experimental indices were to investigate whether tumor growth was inhibited or delayed or the tumor was cured. Tumor diameters were measured twice weekly using a vernier caliper. The tumor volume was calculated according to the following formula: V=0.5 a×b^2, where a and b represent the long diameter and short diameter of the tumor, respectively. The tumor growth inhibitions (TGIs) of the compounds were evaluated by T/C (%). The percentage value of T/C (%) is an index for reflecting the tumor growth inhibition, where T and C represent the average tumor volume of the administration group and the control group, respectively, at a certain day.
The tumor growth inhibition rate was calculated according to the following formula: TGI (%)=(1−(Ti−T0)/(Vi−V0))×100, where Ti is the average tumor volume of a certain administration group on a certain day, T0 is the average tumor volume of the administration group at the start of administration, Vi is the average tumor volume of the vehicle control group on a certain day (same day as Ti) and V0 is the average tumor volume of the vehicle control group at the start of administration.
Relative tumor volumes at each time point for each group were statistically analyzed and differences among groups were assessed based on the data. The statistical method used for testing was one-way ANOVA.

Pfeiffer = test: Methylated lysine of histone-H3 (H3K27Me3) detection by ELISA, Pfeiffer cells; type: cell-based, human; conditions: Homo sapiens, 168 h, 7 days treatment, H3K27Me3 normalized to total histone-3, read-out: IC50 of cell methylation, Pfeiffer
How it was run: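 Cells were treated 7 days with compound (4-fold dilutions, 20 uM-0.009 nM), then lysed hypotonically with NaCl adjusted to ~100 mM. Lysate-coated plates were probed by ELISA for H3K27Me3 and total H3 (TMB, A450). Methylation signal was normalised to total H3 before curve fitting.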

EZH2 (wt) = EZH2 (wt) (Homo sapiens (Human), UniProt Q15910); test: Test on EZH2 (wt) inhibitory activity ([3H]-SAM Flashplate); type: biochemical
Protocol: Protocols Compounds at different concentrations were dissolved in 100% DMSO and transferred to test plates, and the final concentration of DMSO was 1%. The enzyme solution and the mixture solution of peptide and [3H]-SAM were prepared with 1-fold reaction buffer. 10 uL of enzyme solution was added to the test plate and wells only added with 10 uL of reaction buffer were used as negative control wells. After incubation at room temperature for 15 min, the plate was added with 10 uL of the mixture solution of peptide and [3H]-SAM per well to initiate the reaction which lasts for 60 min at room temperature. The pre-cooled SAM was added to 1-fold reaction buffer to prepare a stop buffer. The reaction was stopped by adding 10 uL of stop buffer per well. 25 uL of solution was transferred from the reaction plate to Flashplate and incubated at room temperature for at least 1 h. The Flashplate was washed 3 times with dH2O+0.1% Tween-20. The plate was read by Microbeta.
(§1) Data were fitted by GraphPad Prism 5 software and inhibition rate was calculated according to equation (1) Inh %=(Max−Signal)/(Max−Min)×100 (1)
(§2) IC50 was calculated using equation (2) Y=Bottom+(Top−Bottom)/(1+10^((Log IC50−X)×Hill Slope))
(§3) Y: inhibition rate; X: concentration of the compound

EZH2 enzyme complex = EZH2 enzyme complex (Homo sapiens (Human), UniProt Q15910); test: Test on EZH2 inhibitory activity (TR-FRET); type: biochemical; conditions: EZH2 enzyme complex 25 ng/uL, histone H3 peptide 4 uM, SAM 2 uM, 300 min; read-out: IC50 of EZH2 inhibition
EZH2 (Y641F) = EZH2 (Y641F) (Homo sapiens (Human), UniProt Q15910, Y641F); test: Test on EZH2 (Y641F) inhibitory activity; type: biochemical
EZH2 (Y641F), sequence (Q15910 whole entry Y641F): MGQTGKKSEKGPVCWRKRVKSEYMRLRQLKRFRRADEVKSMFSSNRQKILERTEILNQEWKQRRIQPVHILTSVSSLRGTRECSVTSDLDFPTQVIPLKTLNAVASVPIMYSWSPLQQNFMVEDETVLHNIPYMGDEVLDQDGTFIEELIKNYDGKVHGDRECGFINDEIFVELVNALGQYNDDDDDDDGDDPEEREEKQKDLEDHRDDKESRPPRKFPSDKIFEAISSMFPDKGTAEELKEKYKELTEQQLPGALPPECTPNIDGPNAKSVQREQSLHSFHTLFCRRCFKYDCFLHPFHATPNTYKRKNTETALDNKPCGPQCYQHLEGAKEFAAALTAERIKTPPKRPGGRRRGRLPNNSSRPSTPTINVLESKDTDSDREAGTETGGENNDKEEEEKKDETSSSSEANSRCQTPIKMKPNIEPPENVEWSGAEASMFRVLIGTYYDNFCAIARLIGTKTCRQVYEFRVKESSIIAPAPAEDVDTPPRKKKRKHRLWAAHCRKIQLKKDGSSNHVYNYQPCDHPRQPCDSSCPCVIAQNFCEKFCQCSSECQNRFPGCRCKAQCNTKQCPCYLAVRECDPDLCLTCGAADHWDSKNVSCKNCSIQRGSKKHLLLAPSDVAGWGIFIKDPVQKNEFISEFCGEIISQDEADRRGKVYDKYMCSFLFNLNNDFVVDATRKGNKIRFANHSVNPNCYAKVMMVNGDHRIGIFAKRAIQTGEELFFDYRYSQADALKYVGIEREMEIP
EZH2 (Y641F), sequence (O75530 whole entry partner): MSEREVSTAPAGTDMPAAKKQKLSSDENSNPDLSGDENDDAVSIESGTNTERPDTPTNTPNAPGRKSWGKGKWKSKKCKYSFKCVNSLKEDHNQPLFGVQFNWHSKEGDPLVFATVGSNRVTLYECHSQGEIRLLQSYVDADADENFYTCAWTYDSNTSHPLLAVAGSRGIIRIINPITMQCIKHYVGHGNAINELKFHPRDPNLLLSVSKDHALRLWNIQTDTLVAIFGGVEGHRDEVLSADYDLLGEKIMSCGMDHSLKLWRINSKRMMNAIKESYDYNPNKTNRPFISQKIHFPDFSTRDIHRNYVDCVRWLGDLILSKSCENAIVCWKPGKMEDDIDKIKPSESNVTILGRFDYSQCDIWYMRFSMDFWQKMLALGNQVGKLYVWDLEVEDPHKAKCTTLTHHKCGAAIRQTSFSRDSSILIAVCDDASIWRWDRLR
EZH2 (Y641F), sequence (Q15022 whole entry partner): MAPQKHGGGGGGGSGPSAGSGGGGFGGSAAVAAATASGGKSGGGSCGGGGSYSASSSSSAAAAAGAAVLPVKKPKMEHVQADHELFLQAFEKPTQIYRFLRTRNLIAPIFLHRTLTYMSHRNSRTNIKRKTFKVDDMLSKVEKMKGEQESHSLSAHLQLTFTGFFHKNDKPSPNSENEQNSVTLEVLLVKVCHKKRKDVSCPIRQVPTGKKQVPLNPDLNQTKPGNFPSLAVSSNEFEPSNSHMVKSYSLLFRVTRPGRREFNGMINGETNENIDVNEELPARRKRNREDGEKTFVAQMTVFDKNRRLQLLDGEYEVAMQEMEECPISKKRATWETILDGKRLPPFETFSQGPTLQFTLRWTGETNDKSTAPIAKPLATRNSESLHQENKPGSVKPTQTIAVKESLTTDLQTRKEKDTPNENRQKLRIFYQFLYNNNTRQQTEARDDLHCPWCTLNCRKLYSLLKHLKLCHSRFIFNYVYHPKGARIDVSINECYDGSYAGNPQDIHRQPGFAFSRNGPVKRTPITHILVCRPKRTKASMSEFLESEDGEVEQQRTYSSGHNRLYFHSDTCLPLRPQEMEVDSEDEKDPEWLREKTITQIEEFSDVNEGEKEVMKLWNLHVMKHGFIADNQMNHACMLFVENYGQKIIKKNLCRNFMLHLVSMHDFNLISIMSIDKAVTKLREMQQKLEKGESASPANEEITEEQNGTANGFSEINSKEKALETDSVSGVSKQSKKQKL
Protocol: Compounds at different concentrations were dissolved in 100% DMSO and transferred to test plates, and the final concentration of DMSO was 1%. Enzyme solution and substrate SAM solution were prepared with 1-fold reaction buffer (optimized Tris buffer). 5 uL of enzyme solution was added to the test plate and wells only added with 5 uL of reaction buffer were used as negative control wells. After incubation at room temperature for 15 min, the plate was added with 5 uL of substrate solution per well to initiate the reaction, and then incubated at room temperature for 60 min. 5 uL of receptor solution was added and the plate was incubated away from light at room temperature for 60 min. 10 uL of donor solution was added and the plate was incubated away from light at room temperature for 30 min. The endpoint values were read on the Envision and the IC50 was calculated.
as §1, §2, §3

EZH2 (wt), sequence (Q15910 whole entry): as the sequence (Q15910 whole entry Y641F) above, with F641Y counted along it
EZH2 (wt), sequence (O75530 whole entry partner): as the sequence (O75530 whole entry partner) above
EZH2 (wt), sequence (Q15022 whole entry partner): as the sequence (Q15022 whole entry partner) above
EZH2 enzyme complex, sequence (Q15910 whole entry): as the sequence (Q15910 whole entry Y641F) above, with F641Y counted along it
EZH2 enzyme complex, sequence (O75530 whole entry partner): as the sequence (O75530 whole entry partner) above
EZH2 enzyme complex, sequence (Q15022 whole entry partner): as the sequence (Q15022 whole entry partner) above

CCN(c1cc(O[C@H]2C[C@H](N3C[C@@H](C)O[C@@H](C)C3)C2)cc(C(=O)NCc2c(C)cc(C)[nH]c2=O)c1C)C1CCC(F)(F)CC1 [Example 45, 3-((4,4-difluorocyclohexyl)(ethyl)amino)-N-((4,6-dimethyl-2-oxo-1,2-dihydropyridin-3-yl)methyl)-5-(trans-3-(cis-2,6-dimethylmorpholinyl)cyclobutoxy)-2-methylbenzamide]
TGI [1]: 66.20%
IC50 (Pfeiffer): 50 to 500 nM
IC50 (EZH2 (wt)): 2.3 nM
IC50 (EZH2 enzyme complex): 10 to 100 nM
IC50 (EZH2 (Y641F)): 3 nM
